From patent US20100185419A1, “ALGORITHM FOR DESIGNING IRREVERSIBLE INHIBITORS” (Avila Therapeutics, Inc., priority 2008, published 2010) come the findings set out here.

Each structure is given as a SMILES string. A value given as a limit tells only on which side of the number the result lay.

Assay [1] deals with T1, Flt3 (Homo sapiens, UniProt P36888).
T1 sequence (P36888 27-993): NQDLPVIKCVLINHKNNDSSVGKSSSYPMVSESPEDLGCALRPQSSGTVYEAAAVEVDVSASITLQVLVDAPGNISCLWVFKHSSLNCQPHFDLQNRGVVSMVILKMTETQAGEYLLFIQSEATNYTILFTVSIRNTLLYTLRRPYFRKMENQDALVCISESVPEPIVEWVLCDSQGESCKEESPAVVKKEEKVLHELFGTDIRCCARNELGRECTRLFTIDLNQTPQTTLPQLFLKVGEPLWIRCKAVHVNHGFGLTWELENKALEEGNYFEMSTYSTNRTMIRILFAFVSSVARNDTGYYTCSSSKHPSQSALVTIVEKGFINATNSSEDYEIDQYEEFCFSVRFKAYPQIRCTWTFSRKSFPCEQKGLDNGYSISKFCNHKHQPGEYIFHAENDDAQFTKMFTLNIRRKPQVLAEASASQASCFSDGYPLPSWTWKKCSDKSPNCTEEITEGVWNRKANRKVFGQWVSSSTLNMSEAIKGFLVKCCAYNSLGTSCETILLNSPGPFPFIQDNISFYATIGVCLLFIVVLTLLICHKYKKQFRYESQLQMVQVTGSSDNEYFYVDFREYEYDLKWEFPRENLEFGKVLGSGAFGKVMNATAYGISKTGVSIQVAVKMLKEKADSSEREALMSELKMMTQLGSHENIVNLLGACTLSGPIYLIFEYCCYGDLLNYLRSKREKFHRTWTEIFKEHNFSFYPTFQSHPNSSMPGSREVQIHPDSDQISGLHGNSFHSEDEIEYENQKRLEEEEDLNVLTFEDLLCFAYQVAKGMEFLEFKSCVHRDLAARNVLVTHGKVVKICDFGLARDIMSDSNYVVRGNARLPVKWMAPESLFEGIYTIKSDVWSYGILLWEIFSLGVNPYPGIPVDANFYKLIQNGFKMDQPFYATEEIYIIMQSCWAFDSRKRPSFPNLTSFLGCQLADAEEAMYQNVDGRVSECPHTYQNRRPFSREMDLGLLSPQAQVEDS
Put plainly: Flt3 mass spectral analysis of tryptic digest. The assay is classed as binding. The note with it: 3 hrs at 100× excess, tryptic digest MALDI. As to the method: Flt3 was incubated with Compound 4 for 3 hrs at 100× excess prior to tryptic digestion. Iodoacetamide was used as the alkylating agent after compound incubation. For tryptic digests a 5 ul aliquot (7 pmols) was diluted with 10 ul of 0.1% TFA prior to micro C18 Zip Tipping directly onto the MALDI target using alpha cyano-4-hydroxy cinnamic acid as the matrix (5 mg/ml in 0.1% TFA:Acetonitrile 50:50).
The mass spec instrument was set in Reflectron mode with a pulsed extraction setting of 1800. Calibration was done using the Laser Biolabs Pep Mix standard (1046.54, 1296.69, 1672.92, 2093.09, 2465.20). For CID/PSD analysis the peptide was selected using cursors to set ion gate timing and fragmentation occurred at a laser power about 20% higher and He was used as the collision gas for CID. Calibration for fragments was done using the P14R fragmentation calibration for the Curved field Reflectron.

In assay [2] the target is T1, Flt3. The assay can be described thus: FLT3 biochemical assay (continuous-read kinase assay). Further details: purchased Invitrogen PV3182. The note with it: 500 μM ATP; read-out: IC50 for inhibition of FLT3 phosphorylation.
In assay [3] the target is T2, HCV NS3/4A wild type (Hepatitis C virus genotype 1b, UniProt P26662).
T2 construct: The single-chain proteolytic domain (NS4A21-32-GSGS-NS33-631) was cloned into pET-14b; His tag; made in house; host or cells: Escherichia coli BL21
Put plainly: Mass spectral analysis of intact HCV NS3/4A wild type protease. The note with it: 10-fold excess of compound, 1 hr to 3 hrs, MALDI-TOF. The assay is classed as binding. How it is done:
Mass spectrometric analysis of HCV in the presence of Compound 5 was performed using the following protocol: HCV NS3/4A wild type (wt) was incubated for 1 hr at a 10× fold access of Compound 5 to protein. 2 μl aliquots of the samples were diluted with 10 μl of 0.1% TFA prior to micro C4 ZipTipping directly onto the MALDI target using Sinapinic acid as the desorption matrix (10 mg/ml in 0.1% TFA:Acetonitrile 50:50). The instrument was set in linear mode using a pulsed extraction setting of 24,500 and apomyoglobin as the standard to calibrate the instrument.
100 pmols of HCV wild type (Bioenza CA) was incubated with compound for 1 hr and 3 hrs at 10-fold access of Compound 6 to protein. 1 μl aliquots of the samples (total volume of 4.24 ul) were diluted with 10 μl of 0.1% TFA prior to micro C4 ZipTipping directly onto the MALDI target using Sinapinic acid as the desorption matrix (10 mg/ml in 0.1% TFA:Acetonitrile 50:50). Analyses were performed on a Shimadzu Biotech Axima TOF^2 (Shimadzu Instruments) matrix-assisted-laser desorption/ionization Time-of-Flight (MALDI-TOF) mass spectrometer.

In assay [4] the target is HCV NS3/4A 1b protease (Hepatitis C virus genotype 1b, UniProt P26662). Put plainly: biochemical.
Experimental: An HCV Protease FRET Assay for HCV NS3/4A 1b Enzyme (IC50_APP) was used. The following protocol was used to generate “apparent” IC50 (IC50_APP) values. […] Protease reactions were immediately started after enzyme addition with the addition of 45 μL of the FRET substrate and monitored for 60-90 minutes at λex485/λem520 in a Synergy4 plate reader from BioTek (Winooski, Vt.).
Assay [5] relates to Btk signaling in Ramos cells. Put plainly: Btk Ramos cellular assay (PLCγ2 phosphorylation). The assay is classed as cell-based. Conditions: Homo sapiens, 1 μM compound. As to the method: Compounds CNX-85 was assayed in Ramos human Burkitt lymphoma cells. Ramos cells were grown in suspension in T225 flasks, spun down, resuspended in 50 mls serum-free media and incubated for 1 hour. Compound was added to Ramos cells in serum free media to a final concentration of 1, 0.1, 0.01, or 0.001 μM. Ramos cells were incubated with compound for 1 hour, washed again and resuspended in 100 ul serum-free media. Cells were then stimulated with 1 μg of goat F(ab′)2 Anti-Human IgM and incubated on ice for 10 minutes to activate B cell receptor signaling pathways. After 10 minutes, the cells were washed once with PBS and then lysed on ice with Invitrogen Cell Extraction buffer. 16 μg total protein from lysates were loaded on gel and blots were probed for phosphorylation of the Btk substrate PLCγ2.

In assay [6] the target is T3, Btk (Homo sapiens, UniProt Q06187).
T3 construct: purchased Invitrogen
The assay can be described thus: Omnia assay for potency against Btk. Conditions: biochemical assay; read-out: IC50 Btk kinase. As to the method: The protocol below describes continuous-read kinase assays to measure inherent potency of compounds against active forms of Btk enzyme. The mechanics of the assay platform are best described by the vendor (Invitrogen, Carlsbad, Calif.) on the world wide web at invitrogen.com/site/us/en/home/Products-and-Services/Applications/Drug-Discovery/Target-and-Lead-Identification-and-Validation/KinaseBiology/KB-Misc/Biochemical-Assays/Omnia-Kinase-Assays.html. Briefly, 10× stocks of 5 nM Btk from Invitrogen, 1.13×40 μM ATP (AS001A) and 10 μM (ATP KMapp ˜[…]) Tyr-Sox conjugated peptide substrates (KCZ 1001) were prepared in 1× kinase reaction buffer consisting of 20 mM Tris, pH 7.5, 5 mM MgCl2, 1 mM EGTA, 5 mM β-glycerophosphate, 5% glycerol (10× stock, KBOO2A) and 0.2 mM DTT (DS001A).

Sequence of HCV NS3/4A 1b protease (P26662 1027-1208): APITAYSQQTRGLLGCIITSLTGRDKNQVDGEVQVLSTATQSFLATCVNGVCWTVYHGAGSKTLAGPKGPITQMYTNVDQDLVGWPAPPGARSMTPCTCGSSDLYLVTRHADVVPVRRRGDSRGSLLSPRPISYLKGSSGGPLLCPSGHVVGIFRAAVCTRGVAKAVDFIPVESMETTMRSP
Sequence of HCV NS3/4A 1b protease (P26662 1658-1711): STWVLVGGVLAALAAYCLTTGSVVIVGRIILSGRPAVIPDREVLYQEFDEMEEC
T3 sequence (Q06187 whole entry): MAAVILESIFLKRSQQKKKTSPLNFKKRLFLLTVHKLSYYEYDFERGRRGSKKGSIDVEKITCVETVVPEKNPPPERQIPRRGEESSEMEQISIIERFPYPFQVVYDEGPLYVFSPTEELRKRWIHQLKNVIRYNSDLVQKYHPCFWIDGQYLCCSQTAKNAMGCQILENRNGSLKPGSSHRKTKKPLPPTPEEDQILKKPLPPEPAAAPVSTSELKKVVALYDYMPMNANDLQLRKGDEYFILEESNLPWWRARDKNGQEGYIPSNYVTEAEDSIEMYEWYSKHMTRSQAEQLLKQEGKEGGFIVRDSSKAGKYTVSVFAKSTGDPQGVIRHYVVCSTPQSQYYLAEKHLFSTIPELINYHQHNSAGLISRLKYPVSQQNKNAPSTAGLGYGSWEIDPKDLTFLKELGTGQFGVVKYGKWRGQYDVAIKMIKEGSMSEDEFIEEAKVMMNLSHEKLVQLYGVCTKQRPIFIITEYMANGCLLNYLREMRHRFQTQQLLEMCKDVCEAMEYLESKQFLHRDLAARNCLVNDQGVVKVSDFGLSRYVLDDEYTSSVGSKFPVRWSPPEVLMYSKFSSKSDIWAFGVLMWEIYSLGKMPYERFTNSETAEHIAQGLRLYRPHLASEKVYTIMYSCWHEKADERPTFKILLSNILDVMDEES
T2 sequence (P26662 1013-1207, looked up, natural form): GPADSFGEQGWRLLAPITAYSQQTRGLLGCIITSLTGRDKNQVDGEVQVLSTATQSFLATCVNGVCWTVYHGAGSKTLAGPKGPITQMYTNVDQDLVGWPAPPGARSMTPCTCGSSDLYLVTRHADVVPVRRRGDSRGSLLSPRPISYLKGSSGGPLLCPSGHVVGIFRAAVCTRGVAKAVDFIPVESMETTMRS

In the case of `C=CC(=O)Nc1ccc(Sc2nc(Nc3cc(C)n[nH]3)cc(N3CCN(C)CC3)n2)cc1` [Compound 4, N-(4-(4-(3-Methyl-1H-pyrazol-5-ylamino)-6-(4-methylpiperiazin-1-yl)pyrimidin-2ylthio)phenyl)acrylamide], the “covalent modification of Flt3 (modified peptide)” value in assay [1] is reported as “ICDFGLAR with Compound 4 attached”. Besides, the IC50 in assay [2] came out at 2.2 nM.
Regarding `C=C[C@@H]1C[C@]1(NC(=O)[C@@H]1C[C@@H](Oc2cc(-c3ccccc3)nc3cc(OC)ccc23)CN1C(=O)[C@H](CCC(=O)C=C(C)C)NC(=O)OC(C)(C)C)C(=O)NS(=O)(=O)C1CC1` [Compound 8, tert-butyl-(S)-1-((2S,4R)-2-((1R,2S)-1-(cyclopropylsulfonylcarbamoyl)-2-vinylcyclopropylcarbamoyl)-4-(7-methoxy-2-phenylquinolin-4-yloxy)pyrrolidin-1-yl)-7-methyl-1,5-dioxooct-6-en-2-ylcarbamate], the “adduct formation with HCV protease wild type” value in assay [3] is given as “adduct of HCV protease with the compound was formed”. Also, in assay [4], the IC50 was under 0.5 nM.
In assay [5], `C=CC(=O)Nc1cccc(Nc2cc(Nc3ccc(Oc4ccccc4)cc3)ncn2)c1` [Compound 10, N-{3-[6-(4-phenoxyphenylamino)-pyrimidin-4-ylamino]phenyl}-2 propenamide] returned an inhibition at 1 µM of 85%. The IC50 in assay [6] was found to be 1.8 nM.
